Measurements taken from US9523100B2, “Pesticidal compositions and related methods” (DOW AGROSCIENCES LLC, priority 2013, dated 2016).
Where two headings read alike, the source gives them in different places.

Experiments:
[1] = tested on: Green Peach Aphid (GPA) (Myzus persicae) (MYZUPE); assay: Bioassay for Green Peach Aphid (GPA), foliar spray on cabbage seedlings; assay type: in vivo; details: 72 h, read-out: GPA 200 ppm, % Control (or Mortality) rating
In short: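 Foliar spray test: 200 ppm solutions (0.025% Tween 20 in water, 20% acetone/methanol) applied to both leaf sides of aphid-infested cabbage seedlings. After 3 days at about 25° C, live aphids per plant were counted; control corrected to solvent check via Abbott's formula.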

[2] = tested on: Sweetpotato Whitefly-Crawler (WF) (Bemisia tabaci) (BEMITA); assay: Insecticidal test for Sweetpotato Whitefly-Crawler (WF) in foliar spray assay on cotton plants; assay type: in vivo; details: 216 h, read-out: WF 200 ppm, % Control (or Mortality) rating
In short: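 Whitefly nymph control on egg-infested cotton (eggs laid 4–5 days pre-treatment), foliar spray at 200 ppm test compound. Live late-stage nymphs counted microscopically 9 days later at ~25 °C; control calculated by Abbott's formula relative to acetone-diluent-sprayed plants.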

[3] = 200 ppm foliar spray on cabbage seedlings, graded after three days, Abbott corrected % control
[4] = 200 ppm foliar spray on cotton plants, graded after 9 days, Abbott corrected % control

| SMILES | mortality at 200 ppm [1, 3] | mortality at 200 ppm [2, 4] | mortality at 200 ppm ([1]; foliar) | mortality at 200 ppm ([2]; foliar) |
| --- | --- | --- | --- | --- |
| CCOC(=O)N(C)CCC(=O)N(CC)c1cn(-c2cccnc2)nc1Cl [Compound F42, Ethyl (3-((3-chloro-1-(pyridin-3-yl)-1H-pyrazol-4-yl)(ethyl)amino)-3-oxopropyl)(methyl)carbamate] | 80 to 100% | 80 to 100% | – | – |
| CCN(C(=O)CCC(=O)NCCF)c1cn(-c2cccnc2)nc1Cl [Compound F43, N1-(3-Chloro-1-(pyridin-3-yl)-1H-pyrazol-4-yl)-N1-ethyl-N4-(2-fluoroethyl)succinamide] | 0 to 80% | 80 to 100% | – | – |
| CCN(C(=O)CCNC(=O)C(C)CC(F)(F)F)c1cn(-c2cccnc2)nc1Cl (stereo not shown) [Compound F44, N-(3-((3-Chloro-1-(pyridin-3-yl)-1H-pyrazol-4-yl)(ethyl)amino)-3-oxopropyl)-4,4,4-trifluoro-2-methylbutanamide] | 80 to 100% | 80 to 100% | – | – |
| CCN(C(=O)CCNC(=O)Cc1ccc(F)cc1)c1cn(-c2cccnc2)nc1Cl [Compound F46, N-(3-Chloro-1-(pyridin-3-yl)-1H-pyrazol-4-yl)-N-ethyl-3-(2-(4-fluorophenyl)acetamido) propanamide] | 0 to 80% | 80 to 100% | – | – |
| CCN(C(=O)CN1CCOC1=O)c1cn(-c2cccnc2)nc1Cl [Compound F48, N-(3-Chloro-1-(pyridin-3-yl)-1H-pyrazol-4-yl)-N-ethyl-2-(2-oxooxazolidin-3-yl)acetamide] | 80 to 100% | 80 to 100% | – | – |
| CN(C(=O)CCN1CCCCC1=O)c1cn(-c2cccnc2)nc1Cl [Compound F49, N-(3-Chloro-1-(pyridin-3-yl)-1H-pyrazol-4-yl)-N-methyl-3-(2-oxopiperidin-1-yl)propanamide] | 80 to 100% | 80 to 100% | – | – |
| CCN(C(=O)CCC1CNC1=O)c1cn(-c2cccnc2)nc1Cl (stereo not shown) [Compound F50] | 0 to 80% | 80 to 100% | – | – |
| CCN(C(=O)CC/C(C)=N/OCC(F)(F)F)c1cn(-c2cccnc2)nc1Cl [Compound F51, (E/Z)-N-(3-Chloro-1-(pyridin-3-yl)-1H-pyrazol-4-yl)-N-ethyl-4-((2,2,2-trifluoroethoxy)imino) pentanamide] | 80 to 100% | 80 to 100% | – | – |
| CCN(C(=O)CCN(C)C(=O)OC(C)(C)C)c1cn(-c2cccnc2)nc1Cl [Compound F52, tert-Butyl (3-((3-chloro-1-(pyridin-3-yl)-1H-pyrazol-4-yl)(ethyl)amino)-3-oxopropyl)(methyl) carbamate] | – | – | 80 to 100% | 80 to 100% |
| CCN(C(=O)CCCC1CN(C)C1=O)c1cn(-c2cccnc2)nc1Cl (stereo not shown) [Compound F53, N-(3-Chloro-1-(pyridin-3-yl)-1H-pyrazol-4-yl)-N-ethyl-4-(1-methyl-2-oxoazetidin-3-yl)butanamide] | 80 to 100% | 80 to 100% | – | – |
| CCN(C(=O)CCC(=O)NC1CC1C(F)(F)F)c1cn(-c2cccnc2)nc1Cl (stereo not shown) [Compound F54, N1-(3-Chloro-1-(pyridin-3-yl)-1H-pyrazol-4-yl)-N1-ethyl-N4-(2-(trifluoromethyl)cyclopropyl) succinamide] | 80 to 100% | 80 to 100% | – | – |
| CCN(C(=O)CCC(=O)N(C)CC#N)c1cn(-c2cccnc2)nc1Cl [Compound F55, N1-(3-Chloro-1-(pyridin-3-yl)-1H-pyrazol-4-yl)-N4-(cyanomethyl)-N1-ethyl-N4-methylsuccinamide] | 0 to 80% | 80 to 100% | – | – |
| CCN(C(=O)CCNC(=O)C1CC1(F)F)c1cn(-c2cccnc2)nc1Cl (stereo not shown) [Compound F56, N-(3-((3-Chloro-1-(pyridin-3-yl)-1H-pyrazol-4-yl)(ethyl)amino)-3-oxopropyl)-2,2-difluorocyclopropanecarboxamide] | 80 to 100% | 80 to 100% | – | – |
| CCN(C(=O)CNC(=O)CC(F)(F)F)c1cn(-c2cccnc2)nc1Cl [Compound F57, N-(2-((3-Chloro-1-(pyridin-3-yl)-1H-pyrazol-4-yl)(ethyl)amino)-2-oxoethyl)-3,3,3-trifluoropropanamide] | 80 to 100% | 80 to 100% | – | – |
| CCN(C(=O)CCCC1CNC1=O)c1cn(-c2cccnc2)nc1Cl (stereo not shown) [Compound F58] | 80 to 100% | 80 to 100% | – | – |
| CCN(C(=O)CC/C(C)=N/Oc1cccc(C(F)(F)F)n1)c1cn(-c2cccnc2)nc1Cl [Compound F59, (E/Z)-N-(3-Chloro-1-(pyridin-3-yl)-1H-pyrazol-4-yl)-N-ethyl-4-(((6-(trifluoromethyl)pyridin-2-yl)oxy)imino)pentanamide] | 80 to 100% | 80 to 100% | – | – |

| SMILES | mortality at 200 ppm [1, 3] | mortality at 200 ppm [2, 4] | mortality at 200 ppm ([1]; foliar) | mortality at 200 ppm ([2]; foliar) |
| --- | --- | --- | --- | --- |
| CCN(C(=O)C1CCN(C(C)=O)CC1)c1cn(-c2cccnc2)nc1Cl [Compound F61, 1-Acetyl-N-(3-chloro-1-(pyridin-3-yl)-1H-pyrazol-4-yl)-N-ethylpiperidine-4-carboxamide] | 80 to 100% | 0 to 80% | – | – |
| Cc1nn(-c2cccnc2)cc1N(C)C(=O)CCC(=O)N(C)C [Compound F62, N1,N1,N4-trimethyl-N4-(3-methyl-1-(pyridin-3-yl)-1H-pyrazol-4-yl)succinamide] | 80 to 100% | 80 to 100% | – | – |
| CCN(C(=O)CCNC(=O)CC(F)(F)F)c1cn(-c2cccnc2)nc1Cl [Compound F63, N-(3-((3-Chloro-1-(pyridin-3-yl)-1H-pyrazol-4-yl)(ethyl)amino)-3-oxopropyl)-3,3,3-trifluoropropanamide] | 80 to 100% | 80 to 100% | – | – |
| CCN(C(=O)CCN(C)C(C)=O)c1cn(-c2cccnc2)nc1Cl [Compound F64, N-(3-chloro-1-(pyridin-3-yl)-1H-pyrazol-4-yl)-N-ethyl-3-(N-methylacetamido) propanamide] | 80 to 100% | 80 to 100% | – | – |
| CCN(C(=O)CCNC(=O)/C=C/C(F)(F)F)c1cn(-c2cccnc2)nc1Cl [Compound F65, (E)-N-(3-((3-Chloro-1-(pyridin-3-yl)-1H-pyrazol-4-yl)(ethyl)amino)-3-oxopropyl)-4,4,4-trifluorobut-2-enamide] | 80 to 100% | 80 to 100% | – | – |
| CCN(C(=O)C(C)N(C)C(=O)CC(F)(F)F)c1cn(-c2cccnc2)nc1Cl (stereo not shown) [Compound F66, N-(1-((3-Chloro-1-(pyridin-3-yl)-1H-pyrazol-4-yl)(ethyl)amino)-1-oxopropan-2-yl)-3,3,3-trifluoro-N-methylpropanamide] | 80 to 100% | 80 to 100% | – | – |
| CCN(C(=O)CCC(=O)NCC(F)(F)F)c1cn(-c2cccnc2)nc1Cl [Compound F67, N1-(3-Chloro-1-(pyridin-3-yl)-1H-pyrazol-4-yl)-N1-ethyl-N4-(2,2,2-trifluoroethyl)succinamide] | 80 to 100% | 80 to 100% | – | – |
| CCN(C(=O)CCC(=O)NCc1cccc(Cl)c1)c1cn(-c2cccnc2)nc1Cl [Compound F68, N1-(3-Chloro-1-(pyridin-3-yl)-1H-pyrazol-4-yl)-N4-(3-chlorobenzyl)-N1-ethylsuccinamide] | 0 to 80% | 80 to 100% | – | – |
| CCN(C(=O)CCN1CCOC1=O)c1cn(-c2cccnc2)nc1Cl [Compound F69, N-(3-Chloro-1-(pyridin-3-yl)-1H-pyrazol-4-yl)-N-ethyl-3-(2-oxooxazolidin-3-yl)propanamide] | 80 to 100% | 80 to 100% | – | – |
| CCN(C(=O)CCC(=O)NCC1CC1)c1cn(-c2cccnc2)nc1Cl [Compound F70, N1-(3-Chloro-1-(pyridin-3-yl)-1H-pyrazol-4-yl)-N4-(cyclopropylmethyl)-N1-ethylsuccinamide] | 80 to 100% | 80 to 100% | – | – |
| CCN(C(=O)CC1CNC1=O)c1cn(-c2cccnc2)nc1Cl (stereo not shown) [Compound F71, N-(3-chloro-1-(pyridin-3-yl)-1H-pyrazol-4-yl)-N-ethyl-2-(2-oxoazetidin-3-yl)acetamide] | 80 to 100% | 80 to 100% | – | – |
| CCN(C(=O)CCC(=O)NCCC(F)(F)F)c1cn(-c2cccnc2)nc1Cl [Compound F73, N1-(3-Chloro-1-(pyridin-3-yl)-1H-pyrazol-4-yl)-N1-ethyl-N4-(3,3,3-trifluoropropyl) succinamide] | 80 to 100% | 80 to 100% | – | – |
| CCN(C(=O)CCC1CN(CC2CC2(F)F)C1=O)c1cn(-c2cccnc2)nc1Cl (stereo not shown) [Compound F74, N-(3-Chloro-1-(pyridin-3-yl)-1H-pyrazol-4-yl)-3-1(1-((2,2-difluorocyclopropyl)methyl)-2-oxoazetidin-3-yl)-N-ethylpropanamide] | 80 to 100% | 80 to 100% | – | – |
| CCN(C(=O)CCNC(=O)CC1CC1)c1cn(-c2cccnc2)nc1Cl [Compound F75, N-(3-Chloro-1-(pyridin-3-yl)-1H-pyrazol-4-yl)-3-(2-cyclopropylacetamido)-N-ethylpropanamide] | 80 to 100% | 80 to 100% | – | – |
| CN(CC(=O)N(CC1CC1)c1cn(-c2cccnc2)nc1Cl)C(=O)OC(C)(C)C [Compound F76, tert-Butyl (2-((3-chloro-1-(pyridin-3-yl)-1H-pyrazol-4-yl)(cyclopropylmethyl)amino)-2-oxoethyl) (methyl)carbamate] | – | – | 0 to 80% | 0 to 80% |
| CN(C(=O)CN1CCCCC1=O)c1cn(-c2cccnc2)nc1Cl [Compound F77, N-(3-Chloro-1-(pyridin-3-yl)-1H-pyrazol-4-yl)-N-methyl-2-(2-oxopiperidin-1-yl)acetamide] | 80 to 100% | 80 to 100% | – | – |
